Measurements from the supplement of paper PMC11208160.

Experiment: recombinant barcode read abundance after kanamycin selection (control-corrected) (log10(CPM+1)); higher = more efficient recombination; sequences stand for … in AGTGCAGAGAAAATCGGCCAGTTTTCTCTGCCTGCAGTCCGCATGCCGT…AGATTTATGCAGCGGACTGCCTTTCTCCCAAAGTGATAAACCGGACAGTATCATGGACCGGTTTTCCCGGTAATCCGTATTTGCAAGGTTGGTTTCACT; site = the 11-nt target
Summary of the method: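 Values are log10(CPM+1) from a pooled E. coli screen of targets paired with IS621 bridge RNA target-binding loops. Recombination efficiency here means counts per million of recombinant-junction barcodes, averaged and control-corrected. Plates were chloramphenicol/ampicillin LB agar for the control and chloramphenicol/ampicillin/kanamycin with 0.1 mM IPTG, two replicates each.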
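Also: IS621 recombinase and bridge RNA in Escherichia coli cells.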

Sequence: CACGCCTCTTGGGTTCTAACCTGTTGCCT (site TACGCCTCTAG)
- recombinant barcode read abundance (log10): 0.0712

Sequence: CACGCGCCTTGGGTTCTAACCTGTTGCGG (site CACGCGCCTCC)
- recombinant barcode read abundance (log10): 1.84

Sequence: CACGCGCCTTGGGTTCTAACCTGTTGCGG (site GCTCATACTAG)
- recombinant barcode read abundance (log10): 0.00629

Sequence: CACGGGACTTGGGTTCTAACCTGTTGCAG (site CACGGGACTCT)
- recombinant barcode read abundance (log10): 2.58

Sequence: CACGGGACTTGGGTTCTAACCTGTTGCAG (site TCGAACGCTAA)
- recombinant barcode read abundance (log10): 0.111

Sequence: CACGGGGCTTGGGTTCTAACCTGTTGCCT (site ATGCTACCTCC)
- recombinant barcode read abundance (log10): 0.0666

Sequence: CACGGGGCTTGGGTTCTAACCTGTTGCCT (site CACGGGGCTAG)
- recombinant barcode read abundance (log10): 0.697

Sequence: CACGGTCCTTGGGTTCTAACCTGTTGCCA (site ATGCTATCTCT)
- recombinant barcode read abundance (log10): 0.0164

Sequence: CACGGTCCTTGGGTTCTAACCTGTTGCCA (site CACGGTCCTTG)
- recombinant barcode read abundance (log10): 1.31

Sequence: CACGGTCCTTGGGTTCTAACCTGTTGCGG (site AACGCTCCTCC)
- recombinant barcode read abundance (log10): 0.0287

Sequence: CACGGTCCTTGGGTTCTAACCTGTTGCGG (site CACGGTCCTCC)
- recombinant barcode read abundance (log10): 3.16

Sequence: CACGTTACTTGGGTTCTAACCTGTTGCCT (site CACGGAACTAG)
- recombinant barcode read abundance (log10): 0.0559

Sequence: CACGTTACTTGGGTTCTAACCTGTTGCCT (site CACGTTACTAG)
- recombinant barcode read abundance (log10): 0.628

Sequence: CACTAGCCTTGGGTTCTAACCTGTTGCGG (site CACTAGCCTCC)
- recombinant barcode read abundance (log10): 2.41

Sequence: CACTAGCCTTGGGTTCTAACCTGTTGCGG (site CACTATCCTCC)
- recombinant barcode read abundance (log10): 0.133

Sequence: CACTGCTCTTGGGTTCTAACCTGTTGCCT (site CACTGATCTAG)
- recombinant barcode read abundance (log10): 0.2

Sequence: CACTGCTCTTGGGTTCTAACCTGTTGCCT (site CACTGCTCTAG)
- recombinant barcode read abundance (log10): 1.58

Sequence: CACTGCTCTTGGGTTCTAACCTGTTGCCT (site CACTGGTCTAG)
- recombinant barcode read abundance (log10): 0.151

Sequence: CACTGCTCTTGGGTTCTAACCTGTTGCCT (site CACTGTTCTAG)
- recombinant barcode read abundance (log10): 0.173

Sequence: CACTGGACTTGGGTTCTAACCTGTTGCCT (site CAATGGACTAG)
- recombinant barcode read abundance (log10): 0.155

Sequence: CACTGGACTTGGGTTCTAACCTGTTGCCT (site CACTGGACTAG)
- recombinant barcode read abundance (log10): 1.04

Sequence: CACTGGACTTGGGTTCTAACCTGTTGCCT (site CAGTGGACTAG)
- recombinant barcode read abundance (log10): 0.42

Sequence: CACTGGACTTGGGTTCTAACCTGTTGCCT (site CATTGGACTAG)
- recombinant barcode read abundance (log10): 0.286

Sequence: CACTTAACTTGGGTTCTAACCTGTTGCCA (site CACTTAACTTG)
- recombinant barcode read abundance (log10): 0.0764

Sequence: CACTTAACTTGGGTTCTAACCTGTTGCCA (site TGACAGTCTCT)
- recombinant barcode read abundance (log10): 0.0672

Sequence: CACTTAACTTGGGTTCTAACCTGTTGCCT (site CACTTAACTAG)
- recombinant barcode read abundance (log10): 0.8

Sequence: CACTTAACTTGGGTTCTAACCTGTTGCCT (site CACTTACCTAG)
- recombinant barcode read abundance (log10): 0

Sequence: CACTTAACTTGGGTTCTAACCTGTTGCCT (site CACTTAGCTAG)
- recombinant barcode read abundance (log10): 0.0439

Sequence: CACTTAACTTGGGTTCTAACCTGTTGCCT (site CACTTATCTAG)
- recombinant barcode read abundance (log10): 0

Sequence: CACTTACCTTGGGTTCTAACCTGTTGCCT (site CACTTAACTAG)
- recombinant barcode read abundance (log10): 0.0847

Sequence: CACTTACCTTGGGTTCTAACCTGTTGCCT (site CACTTACCTAG)
- recombinant barcode read abundance (log10): 0.742

Sequence: CACTTACCTTGGGTTCTAACCTGTTGCCT (site CACTTAGCTAG)
- recombinant barcode read abundance (log10): 0.00951

Sequence: CACTTACCTTGGGTTCTAACCTGTTGCCT (site CACTTATCTAG)
- recombinant barcode read abundance (log10): 0.0355

Sequence: CACTTAGCTTGGGTTCTAACCTGTTGCCT (site CACTTAACTAG)
- recombinant barcode read abundance (log10): 0.559

Sequence: CACTTAGCTTGGGTTCTAACCTGTTGCCT (site CACTTACCTAG)
- recombinant barcode read abundance (log10): 0.181

Sequence: CACTTAGCTTGGGTTCTAACCTGTTGCCT (site CACTTAGCTAG)
- recombinant barcode read abundance (log10): 0.269

Sequence: CACTTAGCTTGGGTTCTAACCTGTTGCCT (site CACTTATCTAG)
- recombinant barcode read abundance (log10): 0.0252

Sequence: CACTTGACTTGGGTTCTAACCTGTTGCCT (site CACTTGACTAG)
- recombinant barcode read abundance (log10): 1.2

Sequence: CACTTGACTTGGGTTCTAACCTGTTGCCT (site CACTTGCCTAG)
- recombinant barcode read abundance (log10): 0.213

Sequence: CACTTGACTTGGGTTCTAACCTGTTGCCT (site CACTTGGCTAG)
- recombinant barcode read abundance (log10): 0.137

Sequence: CACTTGACTTGGGTTCTAACCTGTTGCCT (site CACTTGTCTAG)
- recombinant barcode read abundance (log10): 0.0323

Sequence: CACTTGACTTGGGTTCTAACCTGTTGCTT (site CACTTGACTAA)
- recombinant barcode read abundance (log10): 0.331

Sequence: CACTTGACTTGGGTTCTAACCTGTTGCTT (site CGCTTGTCTAA)
- recombinant barcode read abundance (log10): 0.075

Sequence: CACTTGTCTTGGGTTCTAACCTGTTGCCT (site CACTTGACTAG)
- recombinant barcode read abundance (log10): 0.0529

Sequence: CACTTGTCTTGGGTTCTAACCTGTTGCCT (site CACTTGCCTAG)
- recombinant barcode read abundance (log10): 0.0539

Sequence: CACTTGTCTTGGGTTCTAACCTGTTGCCT (site CACTTGGCTAG)
- recombinant barcode read abundance (log10): 0.283

Sequence: CACTTGTCTTGGGTTCTAACCTGTTGCCT (site CACTTGTCTAG)
- recombinant barcode read abundance (log10): 1.7

Sequence: CAGACGCCTTGGGTTCTAACCTGTTGCAG (site CACACTCCTCT)
- recombinant barcode read abundance (log10): 0.039

Sequence: CAGACGCCTTGGGTTCTAACCTGTTGCAG (site CAGACGCCTCT)
- recombinant barcode read abundance (log10): 1.38

Sequence: CAGACTCCTTGGGTTCTAACCTGTTGCCT (site CAGACTCCTAG)
- recombinant barcode read abundance (log10): 0.214

Sequence: CAGACTCCTTGGGTTCTAACCTGTTGCCT (site TAGACTACTAG)
- recombinant barcode read abundance (log10): 0.186

Sequence: CAGAGCACTTGGGTTCTAACCTGTTGCCT (site AAGAGCACTAG)
- recombinant barcode read abundance (log10): 0.107

Sequence: CAGAGCACTTGGGTTCTAACCTGTTGCCT (site CAGAGCACTAG)
- recombinant barcode read abundance (log10): 1.2

Sequence: CAGAGCACTTGGGTTCTAACCTGTTGCCT (site GAGAGCACTAG)
- recombinant barcode read abundance (log10): 0.185

Sequence: CAGAGCACTTGGGTTCTAACCTGTTGCCT (site TAGAGCACTAG)
- recombinant barcode read abundance (log10): 0.138

Sequence: CAGAGTACTTGGGTTCTAACCTGTTGCCT (site CACAGTGCTAG)
- recombinant barcode read abundance (log10): 0.0547

Sequence: CAGAGTACTTGGGTTCTAACCTGTTGCCT (site CAGAGTACTAG)
- recombinant barcode read abundance (log10): 0.216

Sequence: CAGAGTCCTTGGGTTCTAACCTGTTGCTT (site CAGAGTCCTAA)
- recombinant barcode read abundance (log10): 1.59

Sequence: CAGAGTCCTTGGGTTCTAACCTGTTGCTT (site CATAGTCCTAG)
- recombinant barcode read abundance (log10): 0.105

Sequence: CAGCACCCTTGGGTTCTAACCTGTTGCGG (site CAGCACCCTCC)
- recombinant barcode read abundance (log10): 0.515

Sequence: CAGCACCCTTGGGTTCTAACCTGTTGCGG (site CGGTACCCTCC)
- recombinant barcode read abundance (log10): 0.13

Sequence: CAGCAGCCTTGGGTTCTAACCTGTTGCTT (site CAGCAGCCTAA)
- recombinant barcode read abundance (log10): 0.742

Sequence: CAGCAGCCTTGGGTTCTAACCTGTTGCTT (site TCCGTTACTCG)
- recombinant barcode read abundance (log10): 0.0126

Sequence: CAGCATCCTTGGGTTCTAACCTGTTGCAG (site ATCACGTCTAG)
- recombinant barcode read abundance (log10): 0.157

Sequence: CAGCATCCTTGGGTTCTAACCTGTTGCAG (site CAGCATCCTCT)
- recombinant barcode read abundance (log10): 1.11

Sequence: CAGCGGCCTTGGGTTCTAACCTGTTGCCT (site CAGAGGCCTAG)
- recombinant barcode read abundance (log10): 0.191

Sequence: CAGCGGCCTTGGGTTCTAACCTGTTGCCT (site CAGCGGCCTAG)
- recombinant barcode read abundance (log10): 0.288

Sequence: CAGCGGCCTTGGGTTCTAACCTGTTGCCT (site CAGGGGCCTAG)
- recombinant barcode read abundance (log10): 0.121

Sequence: CAGCGGCCTTGGGTTCTAACCTGTTGCCT (site CAGTGGCCTAG)
- recombinant barcode read abundance (log10): 0.718

Sequence: CAGGACCCTTGGGTTCTAACCTGTTGCCT (site CAAGACCCTAG)
- recombinant barcode read abundance (log10): 1.93

Sequence: CAGGACCCTTGGGTTCTAACCTGTTGCCT (site CACGACCCTAG)
- recombinant barcode read abundance (log10): 0.437

Sequence: CAGGACCCTTGGGTTCTAACCTGTTGCCT (site CAGGACCCTAG)
- recombinant barcode read abundance (log10): 2.18

Sequence: CAGGACCCTTGGGTTCTAACCTGTTGCCT (site CATGACCCTAG)
- recombinant barcode read abundance (log10): 0.409

Sequence: CAGGATGCTTGGGTTCTAACCTGTTGCCT (site CAAGATGCTAG)
- recombinant barcode read abundance (log10): 0.731

Sequence: CAGGATGCTTGGGTTCTAACCTGTTGCCT (site CACGATGCTAG)
- recombinant barcode read abundance (log10): 0.0431

Sequence: CAGGATGCTTGGGTTCTAACCTGTTGCCT (site CAGGATGCTAG)
- recombinant barcode read abundance (log10): 1.35

Sequence: CAGGATGCTTGGGTTCTAACCTGTTGCCT (site CATGATGCTAG)
- recombinant barcode read abundance (log10): 0.0284
